{"source": "patent US9446084B2", "about": "“Use of free radical scavengers for protecting and treating skin and hair damages caused by chemotherapy” (Coty Prestige Lancaster Group GmbH, priority 2005, dated 2016)", "key": {"[1]": {"conditions": "RPF 'is known'; cited from earlier work"}, "[2]": {"test": "Radical protection factor (RPF) by electron spin resonance (ESR) against a test radical", "format": "biochemical", "text": "S2=signal amplitude of the antioxidant.\nAs has already been described, the radical protection factor (RPF) determines the activity of a substance for binding free radicals against a test substance. This test substance consists of a highly reactive, semi-stable radical which reacts with all known antioxidation agents. Such radicals include nitroxides such as proxo (2.2,5.5-tetramethyl-1-dihydropyrrolinoxy-nitroxide), tempol (2.2,6.6-tetramethyl-1-piperidinoxy-4-ol-nitroxide), DTBN (di-tert-butyl-nitroxide or preferably DPPH (1.1-diphenyl-2-picryl-hydrazyl.\nThe RPF is measured in such a way that the signal amplitudes of the test radical created by electron spin resonance (ESR/EPR) are measured before and after mixing with an antioxidation agent/scavenger, and the RPF is calculated from this.\nInd. […] Here, based on the known concentration of the test substance (here: DPPH) or the number of its free radicals (radicals per ml), a signal amplitude S1 is measured using an ESR spectrometer. The test radical is dissolved in the same way as the antioxidation agent in a (e.g. 0.1 m) water/alcohol solution. Then the signal amplitude S2 of the antioxidation agent is measured. The normalised difference between the two signal amplitudes is the reduction factor RF RF=(S1-S2)/S1. The result of the radical reduction of the test substance RC×RF is normalised in relation to the quantity of the product input PI (mg/ml). Here, the RC is the quantity of the test substance, i.e. the known number of radicals in the test substance. The radical protection factor is calculated according to the following equation: […]\nThe radical protection factor can be determined using an ESR spectrometer (GALENUS GmbH, Berlin, Germany), and is a value for labelling products with regard to their ability to bind free radicals. The procedure is an in-vitro procedure, in which no individual properties of the user influence the antioxidants."}}}
{"molecule": "CC1=C(/C=C/C(C)=C/C=C/C(C)=C/CO)C(C)(C)CCC1", "note": "[all-trans-retinol]", "values": [{"measurement": "RPF known for standard antioxidation agents", "setting": "[1]", "value": "827 ×10^14 radicals/mg"}]}
{"molecule": "cyclodextrines", "values": [{"measurement": "RPF (radical protection factor)", "setting": "[2]; unit not given", "value": 0}]}
{"molecule": "O=C(/C=C/c1ccc(O)c(O)c1)O[C@H](Cc1ccc(O)c(O)c1)C(=O)O", "note": "[rosemary acid]", "values": [{"measurement": "RPF (radical protection factor)", "setting": "[2]; radical scavenger as such, ESR", "value": "36000-68000 ×10^14 radicals/mg"}]}
{"molecule": "Cc1c(C)c2c(c(C)c1O)CCC(C)(CCCC(C)CCCC(C)CCCC(C)C)O2", "note": "(racemic) [DL-α-tocopherol]", "values": [{"measurement": "RPF known for standard antioxidation agents", "setting": "[1]", "value": "41200 ×10^14 radicals/mg"}]}
{"molecule": "O=C1O[C@H]([C@@H](O)CO)C([O-])=C1OP(=O)([O-])[O-].[Na+].[Na+].[Na+]", "note": "[natrium-ascorbyl-phosphate]", "values": [{"measurement": "RPF (radical protection factor)", "setting": "[2]; radical scavenger as such, ESR", "value": "35000 ×10^14 radicals/mg"}]}
{"molecule": "O=C(OC[C@H]1O[C@@H](OC(=O)c2cc(O)c(O)c(OC(=O)c3cc(O)c(O)c(O)c3)c2)[C@H](OC(=O)c2cc(O)c(O)c(OC(=O)c3cc(O)c(O)c(O)c3)c2)[C@@H](OC(=O)c2cc(O)c(O)c(OC(=O)c3cc(O)c(O)c(O)c3)c2)[C@@H]1OC(=O)c1cc(O)c(O)c(OC(=O)c2cc(O)c(O)c(O)c2)c1)c1cc(O)c(O)c(OC(=O)c2cc(O)c(O)c(O)c2)c1", "note": "[tannic acid]", "values": [{"measurement": "RPF (radical protection factor)", "setting": "[2]; radical scavenger as such, ESR", "value": "310000 ×10^14 radicals/mg"}]}
{"molecule": "CC(=O)Oc1c(C)c(C)c2c(c1C)CCC(C)(CCC[C@H](C)CCC[C@H](C)CCCC(C)C)O2", "note": "(stereo partly drawn) [α-tocopherylacetate]", "values": [{"measurement": "RPF known for standard antioxidation agents", "setting": "[1]", "value": "48 ×10^14 radicals/mg"}]}
{"molecule": "CC(=O)OC/C=C(C)/C=C/C=C(C)/C=C/C1=C(C)CCCC1(C)C", "note": "[all-trans-retinolacetate]", "values": [{"measurement": "RPF known for standard antioxidation agents", "setting": "[1]", "value": "196 ×10^14 radicals/mg"}]}
